Numbered stars: 1 amine (or outer) side, 2 acyl side, 3 side chain; on linkers, the order of the positions; unused ones are H or OH. Bridge positions count the residues as written; N and C are the ends. Square brackets hold non-standard residues; d marks the D form. Side chains are listed from the residue outwards. Peptide text beside a SMILES is read from it. * marks the point of attachment. ξ: configuration not given here. X1 = O=C(O)CN1CCN(CC(=O)O)CCN(CC(=O)NCCCC[C@@H](NC(=O)CCOCCOCCOCCOCCOCCOCCOCCOCCOCCOCCOCCOCCNC(=O)Cc2ccc(Br)cc2)C(=O)NCCOCCOCCOCCOCCOCCOCCOCCOCC(=O)*)CCN(CC(=O)O)CC1; PEG24 = NCCOCCOCCOCCOCCOCCOCCOCCOCCOCCOCCOCCOCCOCCOCCOCCOCCOCCOCCOCCOCCOCCOCCOCCOCCC(=O)O; Ala(piperidin-4-yl) = O=C([C@H](CC1CCN([*:3])CC1)N[*:1])[*:2]; DOTA = O=C(O)CN1CCN(CC(=O)O)CCN(CC(=O)*)CCN(CC(=O)O)CC1; γGlu = O=C(O)[C@H](CCC(=O)[*:2])N[*:1]; 2Nal = N[C@@H](Cc1ccc2ccccc2c1)C(=O)O; Palmitoyl = CCCCCCCCCCCCCCCC(=O)*; αMeI = CC[C@H](C)[C@](C)(N)C(=O)O; Trx = NC[C@H]1CC[C@H](C(=O)O)CC1; Chg = N[C@H](C(=O)O)C1CCCCC1; NMeNle = CCCC[C@H](NC)C(=O)O; ξαMeD = CC(N)(CC(=O)O)C(=O)O; 4Amb = NCc1ccc(C(=O)O)cc1; Orn = NCCC[C@H](N)C(=O)O

Experimental findings from patent publication US20250011368A1, “DLL3 TARGETING PEPTIDES AND CONSTRUCTS THEREOF” (MARIANA ONCOLOGY INC., priority 2023, published 2025) are described below.

In one data set the test system is SHP-77 tumors. Nature of the data set: Ex vivo biodistribution of radiolabeled peptides in nude mice bearing SHP-77 tumors. To be noted: [177Lu]Lu labelling, nude mice bearing SHP-77 tumors (n = 3), 24 hours post-injection. The method, then:
Mice were intravenously injected (via the lateral tail vein) with a bolus dose of the radiolabeled peptides for ex vivo biodistribution studies when tumor volumes were in range of 200-400 mm^3 for xenograft mice and when age of the mice was 5-7 weeks for tumor naïve mice studies. To assess the amount of radionuclide injected into individual mice the syringe was assayed in a dose calibrator before and after injection for [^177Lu]Lu-peptide.
Mice were euthanized at pre-determined time points and selected tissues were resected and collected into pre-weighed tubes. The tubes were then reweighed post resection, the difference giving the weight of each tissue. Radioactivity in each tissue was measured using a gamma counter. Counts were decay corrected to the time of injection and percentage of injected activity per gram (% IA/g) was calculated for each tissue based on the injected activity into each individual mouse. Injected activity was converted to counts based on the sensitivity of the gamma counter. The counts in tissue were then converted to the percentage of injected activity and this was divided by the mass of tissue to give % IA/g.

A further data set concerns the target T1, human DLL3 (Homo sapiens, UniProt Q9NYJ7).
T1 sequence (Q9NYJ7 27-618): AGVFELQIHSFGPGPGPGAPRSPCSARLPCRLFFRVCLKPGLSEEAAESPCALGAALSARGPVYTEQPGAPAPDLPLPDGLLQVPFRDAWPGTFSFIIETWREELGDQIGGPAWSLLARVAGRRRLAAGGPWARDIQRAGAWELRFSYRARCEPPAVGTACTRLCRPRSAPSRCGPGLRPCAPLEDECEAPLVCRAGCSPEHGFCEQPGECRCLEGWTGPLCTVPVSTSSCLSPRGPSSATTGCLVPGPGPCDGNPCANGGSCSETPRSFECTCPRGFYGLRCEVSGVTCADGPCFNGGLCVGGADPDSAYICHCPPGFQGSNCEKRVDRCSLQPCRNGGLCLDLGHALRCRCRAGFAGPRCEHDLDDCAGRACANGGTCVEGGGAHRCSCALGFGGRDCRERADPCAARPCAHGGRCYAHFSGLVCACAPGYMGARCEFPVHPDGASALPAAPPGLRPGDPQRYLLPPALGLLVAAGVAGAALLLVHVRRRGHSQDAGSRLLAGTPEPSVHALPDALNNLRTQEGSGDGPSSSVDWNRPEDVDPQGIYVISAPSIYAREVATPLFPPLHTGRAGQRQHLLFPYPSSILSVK
In words: Affinity determination by Surface Plasmon Resonance (SPR). The class given is binding. To be noted: 25° C., biotinylated human DLL3 immobilized on streptavidin sensor chip, 1:1 binding model; read-out: SPR KD. The essentials: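 Kinetic and affinity constants were derived by fitting sensorgrams to a 1:1 binding model. Graded compound concentrations flowed at 100 μL/minute in 20 mM phosphate running buffer with 2% DMSO over streptavidin-immobilized biotinylated human DLL3, reference-subtracted.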

With `CC[C@H](C)[C@H](NC(=O)[C@@H](NC(=O)[C@H](Cc1c[nH]c2ccccc12)NC(C)=O)[C@@H](C)O)C(=O)N[C@H]1CSSC[C@@H](C(=O)N[C@@H](Cc2c[nH]c3ccccc23)C(=O)N2CCC[C@H]2C(=O)N[C@H](CCCCNC(=O)COCCOCCOCCOCCOCCOCCOCCOCCNC(=O)[C@@H](CCCCNC(=O)CN2CCN(CC(=O)O)CCN(CC(=O)O)CCN(CC(=O)O)CC2)NC(=O)CCOCCOCCOCCOCCOCCOCCOCCOCCOCCOCCOCCOCCNC(=O)Cc2ccc(Br)cc2)C(N)=O)NC(=O)[C@H](CC(=O)O)NC(=O)[C@H](Cc2c[nH]cn2)NC(=O)[C@H](Cc2ccc3ccccc3c2)NC(=O)[C@H](CC(N)=O)NC(=O)[C@H](CC(N)=O)NC1=O` [compound 252, Ac-W-T-I-C(3)-N-N-(2Nal)-H-D-C(3)-W-P-{D-Lys[PEG8-D-Lys(DOTA)-PEG12-COCH2Ph-4Br]}-NH2] (Ac-WTICNN[2Nal]HDCWP[dK](X1)-NH2; disulfide 4-10), in the data set on SHP-77 tumors, the “kidney uptake (% IA/g)” value is reported as “D (% IA/g > 10 in kidney)” and the “tumor uptake (% IA/g)” value is listed as “A (0 < % IA/g ≤ 5 in tumor)”.
One may read the Kd as the free concentration of one partner at which half of the binding sites on the other are occupied at equilibrium, for simple one-to-one binding. Consider `CC[C@H](C)[C@H](NC(=O)[C@@H](NC(=O)[C@H](Cc1c[nH]c2ccccc12)NC(C)=O)[C@@H](C)O)C(=O)N[C@H]1CSSC[C@@H](C(=O)N[C@@H](Cc2c[nH]c3ccccc23)C(=O)N2CCC[C@H]2C(=O)NC[C@H]2CC[C@H](C(=O)NC[C@H]3CC[C@H](C(=O)N[C@H](CCCCNC(=O)CN4CCN(CC(=O)O)CCN(CC(=O)O)CCN(CC(=O)O)CC4)C(N)=O)CC3)CC2)NC(=O)[C@H](CC(=O)O)NC(=O)[C@H](Cc2cnc[nH]2)NC(=O)[C@H](Cc2ccc3ccccc3c2)NC(=O)[C@H](CC(N)=O)NC(=O)[C@H](CC(N)=O)NC1=O` [compound 373, Ac-W-T-I-C(3)-N-N-(2Nal)-H-D-C(3)-W-P-(Cyx)2-[D-Lys(DOTA)]-NH2] (Ac-WTICNN[2Nal]HDCWP[Trx][Trx][dK](DOTA)-NH2; disulfide 4-10), for which the Kd on human DLL3 is less than 1 nM.
Same read-out and setting: with `CC[C@H](C)[C@H](NC(=O)[C@@H](NC(=O)[C@H](Cc1c[nH]c2ccccc12)NC(C)=O)[C@@H](C)O)C(=O)N[C@H]1CSSC[C@@H](C(=O)N[C@@H](Cc2c[nH]c3ccccc23)C(=O)N2CCC[C@H]2C(=O)NCc2ccc(C(=O)N[C@H](CCCCNC(=O)CN3CCN(CC(=O)O)CCN(CC(=O)O)CCN(CC(=O)O)CC3)C(N)=O)cc2)NC(=O)[C@H](CC(=O)O)NC(=O)[C@H](Cc2c[nH]cn2)NC(=O)[C@H](Cc2ccc3ccccc3c2)NC(=O)[C@H](CC(N)=O)NC(=O)[C@H](CC(N)=O)NC1=O` [compound 374, Ac-W-T-I-C(3)-N-N-(2Nal)-H-D-C(3)-W-P-(AMBX)-[D-Lys(DOTA)]-NH2] (Ac-WTICNN[2Nal]HDCWP[4Amb][dK](DOTA)-NH2; disulfide 4-10) the figure was less than 1 nM; with `CC[C@H](C)[C@H](NC(=O)[C@@H](NC(=O)[C@H](Cc1c[nH]c2ccccc12)NC(C)=O)[C@@H](C)O)C(=O)N[C@H]1CSSC[C@@H](C(=O)N[C@@H](Cc2c[nH]c3ccccc23)C(=O)N2CCC[C@H]2C(=O)N[C@H](CCCCNC(=O)CN2CCN(CC(=O)O)CCN(CC(=O)O)CCN(CC(=O)O)CC2)C(=O)O)NC(=O)[C@H](CC(=O)O)NC(=O)[C@H](CCCN)NC(=O)[C@H](Cc2ccc3ccccc3c2)NC(=O)[C@H](CC(N)=O)NC(=O)[C@H](CC(N)=O)NC1=O` [compound 376, Ac-W-T-I-C(3)-N-N-(2Nal)-Orn-D-C(3)-W-P-[D-Lys(DOTA)]-NH2] (Ac-WTICNN[2Nal][Orn]DCWP[dK](DOTA)-OH; disulfide 4-10), less than 1 nM.
Same read-out and setting: with `CC[C@H](C)[C@](C)(NC(=O)[C@@H](NC(=O)[C@H](Cc1c[nH]c2ccccc12)NC(C)=O)[C@@H](C)O)C(=O)N[C@H]1CSSC[C@@H](C(=O)N[C@@H](Cc2c[nH]c3ccccc23)C(=O)N2CCC[C@H]2C(=O)N[C@H](CCCCNC(=O)CN2CCN(CC(=O)O)CCN(CC(=O)O)CCN(CC(=O)O)CC2)C(N)=O)NC(=O)[C@H](CC(=O)O)NC(=O)[C@H](Cc2cnc[nH]2)NC(=O)[C@H](Cc2c[nH]c3ccccc23)NC(=O)[C@H](CC(N)=O)NC(=O)[C@H](CC(N)=O)NC1=O` [compound 409, Ac-W-T-(aMe-I)-C(3)-N-N-W-H-D-C(3)-W-P-[D-Lys(DOTA)]-NH2] (Ac-WT[αMeI]CNNWHDCWP[dK](DOTA)-NH2; disulfide 4-10) the figure was 10 to 100 nM; with `CC[C@H](C)[C@H](NC(=O)[C@@H](NC(=O)[C@H](Cc1c[nH]c2ccccc12)NC(C)=O)[C@@H](C)O)C(=O)N[C@H]1CSSC[C@@H](C(=O)N[C@@H](Cc2c[nH]c3ccccc23)C(=O)N2CCC[C@H]2C(=O)N[C@H](CCCCNC(=O)CN2CCN(CC(=O)O)CCN(CC(=O)O)CCN(CC(=O)O)CC2)C(N)=O)NC(=O)C(C)(CC(=O)O)NC(=O)[C@H](Cc2cnc[nH]2)NC(=O)[C@H](Cc2c[nH]c3ccccc23)NC(=O)[C@H](CC(N)=O)NC(=O)[C@H](CC(N)=O)NC1=O` (stereo partly drawn) [compound 410, Ac-W-T-I-C(3)-N-N-W-H-(aMe-D)-C(3)-W-P-[D-Lys(DOTA)]-NH2] (Ac-WTICNNWH[ξαMeD]CWP[dK](DOTA)-NH2; disulfide 4-10), 1 to 10 nM; with `CCCCCCCCCCCCCCCC(=O)N[C@@H](CCC(=O)NCCOCCOCCOCCOCCOCCOCCOCCOCCOCCOCCOCCOCCOCCOCCOCCOCCOCCOCCOCCOCCOCCOCCOCCOCCC(=O)NCCCC[C@@H]1NC(=O)[C@H](Cc2ccc3ccccc3c2)NC(=O)[C@H](CC(N)=O)NC(=O)[C@H](CC2CCNCC2)NC(=O)[C@@H](NC(=O)[C@@H](NC(=O)[C@@H](NC(=O)[C@H](Cc2c[nH]c3ccccc23)NC(C)=O)[C@@H](C)O)C2CCCCC2)CSSC[C@@H](C(=O)N[C@@H](Cc2c[nH]c3ccccc23)C(=O)N2CCC[C@H]2C(=O)N[C@H](CCCCNC(=O)CN2CCN(CC(=O)O)CCN(CC(=O)O)CCN(CC(=O)O)CC2)C(N)=O)NC(=O)[C@H](CC(=O)O)NC1=O)C(=O)O` [compound 426, Ac-WT-(Chg)-C(3)-[3-(4-piperidinyl)-Ala]-N-(2Nal)-Lys(PEG24-[gE(C16)]-OH)-D-C(3)-W-P-[D-Lys(DOTA)]-NH2] (Ac-WT[Chg]C[Ala(piperidin-4-yl)]N[2Nal]K([PEG24-γGlu-Palmitoyl])DCWP[dK](DOTA)-NH2; disulfide 4-10), 1 to 10 nM.
In the case of `CCCCCCCCCCCCCCCC(=O)N[C@@H](CCC(=O)NCCOCCOCCOCCOCCOCCOCCOCCOCCOCCOCCOCCOCCOCCOCCOCCOCCOCCOCCOCCOCCOCCOCCOCCOCCC(=O)NCCCC[C@@H]1NC(=O)[C@H](Cc2ccc3ccccc3c2)NC(=O)[C@H](CC(N)=O)NC(=O)[C@H](CC2CCNCC2)NC(=O)[C@@H](NC(=O)[C@H](CCCC)N(C)C(=O)[C@@H](NC(=O)[C@H](Cc2c[nH]c3ccccc23)NC(C)=O)[C@@H](C)O)CSSC[C@@H](C(=O)N[C@@H](Cc2c[nH]c3ccccc23)C(=O)N2CCC[C@H]2C(=O)N[C@H](CCCCNC(=O)CN2CCN(CC(=O)O)CCN(CC(=O)O)CCN(CC(=O)O)CC2)C(N)=O)NC(=O)[C@H](CC(=O)O)NC1=O)C(=O)O` [compound 427, Ac-W-T-(NMe-Nle)-C(3)-[3-(4-piperidinyl)-Ala]-N-(2Nal)-Lys(PEG24-[gE(C16)]-OH)-D-C(3)-W-P-[D-Lys(DOTA)]-NH2] (Ac-WT[NMeNle]C[Ala(piperidin-4-yl)]N[2Nal]K([PEG24-γGlu-Palmitoyl])DCWP[dK](DOTA)-NH2; disulfide 4-10), at human DLL3, the Kd is 10 to 100 nM.
For the compound `CC[C@H](C)[C@H](NC(=O)[C@@H](NC(=O)[C@H](Cc1c[nH]c2ccccc12)NC(C)=O)[C@@H](C)O)C(=O)N[C@H]1CSSC[C@@H](C(=O)N[C@@H](Cc2c[nH]c3ccccc23)C(=O)N2CCC[C@H]2C(=O)N[C@H](CCCCNC(=O)CN2CCN(CC(=O)O)CCN(CC(=O)O)CCN(CC(=O)O)CC2)C(N)=O)NC(=O)[C@H](CC(=O)O)NC(=O)[C@H](Cc2cnc[nH]2)NC(=O)[C@H](Cc2ccc3ccccc3c2)NC(=O)[C@H](CC(N)=O)NC(=O)[C@H](CCCCN)NC1=O` [compound 451, Ac-W-T-I-C(3)-K-N-(2Nal)-H-D-C(3)-W-P-[D-Lys(DOTA)]-CONH2] (Ac-WTICKN[2Nal]HDCWP[dK](DOTA)-NH2; disulfide 4-10), in the data set on SHP-77 tumors, the “kidney uptake (% IA/g)” value was “D (% IA/g > 10 in kidney)” and the “tumor uptake (% IA/g)” value is reported as “A (0 < % IA/g ≤ 5 in tumor)”.
Take “Ac-W-T-I-C(3)-N-N-(2Nal)-(4Pya)-D-C(3)-W-P-[D-Lys(DOTA)]-NH2 [compound 367]”: on human DLL3, the Kd is less than 1 nM.
